Test results: US20230167108A1, “CRYSTAL OF IMIDAZOPYRIDINONE COMPOUND OR SALT THEREOF” (Kissei Pharmaceutical Co., Ltd., priority 2020, published 2023)

Legend:
[1] = test system: TNBS induced colitis model rat; assay: Therapeutic effect in colitis model (suppression of intestinal permeability of FITC); format: in vivo; conditions: 3 mg/kg orally once a day for 3 days, serum FITC, mean
Protocol: Test Example 2 Therapeutic Effect in Colitis Model
(1) TNBS Induced Colitis Model Rat
Thus, the suppressive effect on the intestinal permeability based on oral administration of the test compound was evaluated as an indicator of medicinal efficacy.
SD male rats: 8-week-old SIX (Japan SLC) were used, Under pentobarbital anesthesia, 300 μL of 28 mg/mL TNBS which was adjusted with 50% ethanol was administered at a point 8 cm from the anus in the large intestine to cause inflammation. To the solvent-treated group was administrated 300 μL of 50% ethanol. Animals were fasted for 48 hours prior to administration of TNBS. The test compound (3 mg/kg) prepared with 0.05% methylcellulose solution was orally administered once a day from the next day, and it was administered for a total of 3 days. After administering for 3 clays, 50 mg/kg FITC was orally administered 4 hours after the administration of the test compound. Blood samples were collected from jugular vein under isoflurane anesthesia after 4 hours. The serum was centrifuged, and fluorescence intensity was detected by PHERAstar FSX (BMG Labtech) to measure the concentration of FITC permeating into circulating blood through the mesentery. The suppressive rate on the intestinal permeability of the test compound was calculated based on the value of the test substance-free group as 0 and the value of the TNBS-untreated group as 100.

human PHD2184-418 = biological target: T1, human PHD2184-418 (Homo sapiens, UniProt Q9GZT9); assay: PHD2 inhibitory test (fluorescence polarization, FITC-labeled HIF-1α556-574); format: binding; conditions: 2 μM 2-oxoglutarate, 37° C. for 60 minutes
T1 construct: containing amino acid residues 184 to 418 of the protein represented by CAC42509; histidine tag (N); made in house; host or cells: E. coli BL21 (DE3), pET-30a (+) vector
T1 sequence (Q9GZT9 184-418): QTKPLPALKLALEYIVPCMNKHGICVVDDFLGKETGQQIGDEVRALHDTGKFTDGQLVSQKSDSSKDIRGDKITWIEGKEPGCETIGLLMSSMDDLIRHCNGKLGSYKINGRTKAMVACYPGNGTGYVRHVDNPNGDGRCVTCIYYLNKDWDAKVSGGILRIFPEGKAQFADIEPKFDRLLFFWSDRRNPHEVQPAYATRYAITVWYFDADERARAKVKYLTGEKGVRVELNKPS
Protocol: Test Example 1 PHD2 Inhibitory Test
(1) Expression and Preparation of Human […]
Human PHD2184-418 is containing amino acid residues 184 to 418 of the protein represented by CAC42509 (GenBank accession ID) was expressed and prepared by the following method.
An expression construct of human PHD2184-418 containing an N-terminal histidine tag was introduced into pET-30a (+) vector, and the sequence was confirmed. This vector was introduced into BL21 (DE3) strain and cultured at 37° C. in LB medium containing antibiotics. After culturing, a cell lysis solution was added to the cells, and then the cells were disrupted and suspended by sonication. The disrupted suspension was centrifuged, and the supernatant was purified by Ni column to give human PHD2184-418.
Human HIF-1α556-574 (FITC-labeled HIF-1α556-574), containing FITC-Ahx at the N-terminal of HIF-1α556-574 containing amino acid residues 556 to 574 (partial peptide) of human HIF-1α, was used as a substrate. Using FITC-labeled HIF-1α556-574, the competitive inhibition between 2-oxoglutarate and the test compound ([…]) was evaluated based on the change in fluorescence polarization of FITC-labeled HIF-1α556-574 by the following method.
An enzyme (human PHD2184-418) and the substrate were diluted with an assay buffer (pH 7.4) containing 10 mM HEPES, 150 mM NaCl, 10 μM MnCl2-4H2O, 2 μM 2-oxoglutarate and 0.05% Tween-20. […]

[2] = Rat PK study: concentration of compound in large intestine tissue and plasma; format: in vivo; conditions: 3 mg/kg oral, non-fasted SD rats
Protocol: Test Example 3 Concentration of Compound in Large Intestine Tissue
The test compound (3 mg/kg/5 mL) prepared with 0.05% methylcellulose was orally administered to non-fasted rats (SD, 8-week-old, male, T SLC). Blood samples were collected from jugular vein 0.25, 0.5, 1, 2, 4, 6 and […] hours after the administration. Laparotomy was performed under isoflurane anesthesia, and the large intestine was isolated. The collected distal large intestine (about 5 cm) was cut open, and then the large intestine extracted was washed with saline on a dish. After washing, the large intestine was minced with small scissors. About 150 mg thereof was moved to a tube. To the tube was added 100 μL of saline, and the mixture was homogenized using shake master (1000 rpm×30 minutes). Samples were prepared by the addition with quadruple volume of saline as the final volume. The concentrations of the test compound in the large intestine tissue and the plasma were measured through a quantitative analysis using liquid chromatography-mass spectrometry (LC/MS).
Cmax: maximum plasma concentration of the test compound in the case of oral administration (ng/mL) AUC: area under the plasma test compound concentration-time curve (ng*min/mL) Plasma: plasma test compound concentration after 8 hours (ng/mL) Colon: concentration of the test compound in the large intestine tissue after hours (ng/g) C/P: ratio of the above Colon and Plasma

[3] = Solid stability test (physicochemical and chemical stability of crystals); conditions: open condition at 40° C., 1 month; for Amount of the mass change of the compound 1: HPLC area normalization; for Properties: appearance; for Crystal form change: powder X-ray diffraction
Source text: Test Example 4: Solid Stability Test
The physicochemical stability and chemical stability for the crystals of the compound 1 (crystal forms I to III), the crystals of the methanesulfonic acid salt of the compound 1 (crystal forms I, II and IV), the crystals of the hydrochloride (crystal forms I and III), the crystal form I of the p-toluenesulfonic acid salt, the crystal form I of the sodium salt and the crystal form I of the calcium salt were examined.
Physicochemical stability: Each crystal was stored under open condition at 40° C. The powder X-ray diffraction of the sample was measured at the initial point and 1 month later, and the change in crystal form Was confirmed. The change in properties was also observed at the same time. Chemical stability: Each crystal was stored under open condition at 40° C. The mass of the compound 1 in the sample was measured under the following HPLC measurement conditions at the initial point and 1 month later.
Detector: Ultraviolet and visible absorptiometer/wavelength: 225 nm
Column: L-column 2 ODS, 3 μm, 4.6×150 mm (Chemicals Evaluation and Research Institute)
Column temperature: Constant temperature around 40° C. Flow rate: 1.0 mL/min Mobile phase A: Potassium dihydrogenphosphate and dipotassium hydrogenphosphate aqueous solution adjusted to 10 mmol/L with water Mobile phase B: Acetonitrile Mobile phase ratios: 0 to 30 minutes: mobile phase A/mobile phase B=88/12 30 to 50 minutes: mobile phase A/mobile phase B=88/12 to 25/75 50 to 55 minutes: mobile phase A/mobile phase B=25/75 55 to 55.01 minutes: mobile phase A/mobile phase B=25/75 to 88/12 55.01 to 75 minutes: mobile phase Airmobile phase B=88/12 Amount of injection: 5 μL Sample cooler: 4° C. Dissolution solvent: Mixed solution (mobile phase A/acetonitrile=75/25) Sample solution: Sample was dissolved in dissolution solvent and adjusted to about 1 mg/mL
Excluding the peaks derived from the blank, the peak areas of the compound 1 and an analogous substance were measured by automatic integration, and the mass of the compound 1 was calculated by area normalization method. Further, the amount of the mass change of the compound 1 after the storage was calculated.

IC50 (human PHD2184-418; read-out: IC50 (human PHD2 binding inhibitory activity)) [nM]	Colon: concentration of the test compound in the large intestine tissue ([2]; distal large intestine) [ng/g]	Kp ([2]; male, rat, large intestine tissue / plasma, read-out: C/P: ratio of Colon and Plasma)	concentration at 8 h ([2]; male, rat, plasma, 8 hours, read-out: Plasma: plasma test compound concentration after 8 hours) [ng/mL]	AUC ([2]; male, rat, plasma, read-out: AUC: area under the plasma test compound concentration-time curve (converted)) [ng·h/mL]	Cmax ([2]; male, rat, plasma, read-out: Cmax: maximum plasma concentration of the test compound) [ng/mL]	Amount of the mass change of the compound 1 [3]	Properties [3]	Crystal form change [3]	Structure (SMILES)	Inhibition (%): suppressive rate on the intestinal permeability [1] [%]	Inhibition (%): suppressive rate on the intestinal permeability ([1]; listed as compound 1)	IC50 (human PHD2 binding inhibitory activity) (human PHD2184-418)	C/P: ratio of Colon and Plasma [2]
180	164	> 164	< 1	1.95	1				Cn1c(C(=O)O)cnc1CN1CC[C@H](n2c(=O)n(-c3ccc(-c4ccc(C(=O)O)cc4)nc3)c3cccnc32)C1 [Compound 1, 2-{[(3S)-3-{1-[6-(4-Carboxyphenyl)pyridin-3-yl]-2-oxo-2,3-dihydro-1H-imidazo[4,5-b]pyridin-3-yl}pyrrolidin-1-yl]methyl}-1-methyl-1H-imidazole-5-carboxylic Acid]	101	suppressed	inhibited binding between PHD2 and HIF-1α	higher concentration in the large intestine tissue than the concentration in the plasma
						No change	White powder, no change	No change	Cn1c(C(=O)O)cnc1CN1CC[C@H](n2c(=O)n(-c3ccc(-c4ccc(C(=O)O)cc4)nc3)c3cccnc32)C1 [Crystal form I of the compound 1]				
						−0.03%	White powder, no change	No change	Cn1c(C(=O)O)cnc1CN1CC[C@H](n2c(=O)n(-c3ccc(-c4ccc(C(=O)O)cc4)nc3)c3cccnc32)C1 [Crystal form II of the compound 1]				
						−0.04%	White powder, no change	No change	Cn1c(C(=O)O)cnc1CN1CC[C@H](n2c(=O)n(-c3ccc(-c4ccc(C(=O)O)cc4)nc3)c3cccnc32)C1 [Crystal form III of the compound 1]				
